# Measured values as given in ChEMBL document CHEMBL3621158, “Synthesis of new betulinic acidpeptide conjugates and in vivo and in silico studies of the influence of peptide moieties on the triterpenoid core activity” (2015).
# Legend:
# Assay type in all cases: functional
# Mus musculus [1] = assay: Anti-inflammatory activity in mouse model of histamine-induced paw edema assessed as inhibition of inflammation at 50 mg/kg, ip dosed 1 hr before histamine injection
# Mus musculus [2] = assay: Anti-inflammatory activity in mouse model of histamine-induced paw edema assessed as inhibition of inflammation at 50 mg/kg, ip dosed 1 hr before histamine injection relative to 50 mg/kg, ip indomethacin
# Mus musculus [3] = assay: Anti-inflammatory activity in mouse model of histamine-induced paw edema assessed as inhibition of inflammation at 20 mg/kg, po dosed 1 hr before histamine injection
Structure (SMILES),inhibition in vivo at 50 mg/kg (Mus musculus [1]) [%],inhibition in vivo at 50 mg/kg (Mus musculus [2]) [%],inhibition in vivo at 20 mg/kg (Mus musculus [3]) [%]
C#C[C@]1(O)CC[C@]2(C)[C@H]3CC[C@@H]4[C@H]5[C@H](C(=C)C)CC[C@]5(C(=O)O)CC[C@@]4(C)[C@]3(C)CC[C@H]2C1(C)C,25.2,60,–
C=C(C)[C@@H]1CC[C@]2(C(=O)O)CC[C@]3(C)[C@H](CC[C@@H]4[C@@]5(C)CC[C@@](O)(c6cn(CCNC(=O)C(C)(C)N(Cc7ccc(OC)cc7OC)C(=O)[C@H](Cc7c[nH]cn7)NC(=O)OC(C)(C)C)nn6)C(C)(C)[C@@H]5CC[C@]43C)[C@@H]12,33.4,79,–
C=C(C)[C@@H]1CC[C@]2(C(=O)O)CC[C@]3(C)[C@H](CC[C@@H]4[C@@]5(C)CC[C@@](O)(c6cn(C[C@H](Cc7ccccc7)N(C(=O)[C@H](CO)NC(=O)OC(C)(C)C)C(=O)C(C)(C)NCc7ccc(OC)cc7OC)nn6)C(C)(C)[C@@H]5CC[C@]43C)[C@@H]12,23,55,–
C=C(C)[C@@H]1CC[C@]2(C(=O)O)CC[C@]3(C)[C@H](CC[C@@H]4[C@@]5(C)CC[C@@](O)(c6cn(C[C@H](Cc7ccccc7)N(C(=O)[C@H](Cc7cc8ccccc8[nH]7)NC(=O)OC(C)(C)C)C(=O)C(C)(C)NCc7ccc(OC)cc7OC)nn6)C(C)(C)[C@@H]5CC[C@]43C)[C@@H]12,38.8,92,–
C=C(C)[C@@H]1CC[C@]2(C(=O)O)CC[C@]3(C)[C@H](CC[C@@H]4[C@@]5(C)CC[C@@](O)(c6cn(C[C@H](C)N(C(=O)[C@@H](NC(=O)OC(C)(C)C)[C@@H](C)CC)C(=O)C(C)(C)NCc7ccc(OC)cc7OC)nn6)C(C)(C)[C@@H]5CC[C@]43C)[C@@H]12,31.2,74.3,–
C=C(C)[C@@H]1CC[C@]2(C(=O)O)CC[C@]3(C)[C@H](CC[C@@H]4[C@@]5(C)CC[C@@](O)(c6cn(C[C@H](C)N(C(=O)[C@H](Cc7ccccc7)NC(=O)OC(C)(C)C)C(=O)C(C)(C)NCc7ccc(OC)cc7OC)nn6)C(C)(C)[C@@H]5CC[C@]43C)[C@@H]12,2.5,6,–
C=C(C)[C@@H]1CC[C@]2(C(=O)O)CC[C@]3(C)[C@H](CC[C@@H]4[C@@]5(C)CC[C@](O)(c6cn(C[C@H](C)N(C(=O)[C@@H](NC(=O)OC(C)(C)C)[C@@H](C)CC)C(=O)C(C)(C)NCc7ccc(OC)cc7OC)nn6)C(C)(C)[C@@H]5CC[C@]43C)[C@@H]12,14.5,34.5,–
COc1ccc2c(c1)c(CC(=O)O)c(C)n2C(=O)c1ccc(Cl)cc1 [INDOMETHACIN],42,78,32.8
